biological target: T1, Dimer of Gag-Pol polyprotein [489-587] (Human immunodeficiency virus 1, UniProt P12497); assay: Protease Inhibition Assay; conditions: pH 6.2; 37 °C
T1 construct: 489-587
Protocol: For determination of IC50 values, HIV-1 protease was added to assay buffer containing inhibitor and the substrate (H-His-Lys-Ala-Arg-Val-Leu- (p-NO2) Phe-Glu-Ala-norleucine-Ser-NH2). The Leu- (p-NO2) Phe bond of the substrate was cleaved by the enzyme, and the substrate and products were separated by reversed-phase HPLC. Absorbance was measured at 220 nm, peak areas were determined, and percentage conversion to product was calculated.

SMILES | IC50 [nM]
CCNS(=O)(=O)Oc1cc(C(C)(C)C)c(SC2C(=O)CC(C)(CCc3ccc(O)cc3)OC2=O)cc1C (stereo unspecified) [5-tert-butyl-4-({4-hydroxy-6-[2-(4-hydroxyphenyl)ethyl]-6-methyl-2-oxo-5,6-dihydro-2H-pyran-3-yl}sulfanyl)-2-methylphenyl N-ethylsulfamate] | 2.3
Cc1cc(SC2C(=O)CC(CCc3ccc(O)cc3)(C3CCCCC3)OC2=O)c(C(C)(C)C)cc1OS(=O)(=O)N1CCN(C)CC1 (stereo unspecified) [5-tert-butyl-4-({6-cyclohexyl-4-hydroxy-6-[2-(4-hydroxyphenyl)ethyl]-2-oxo-5,6-dihydro-2H-pyran-3-yl}sulfanyl)-2-methylphenyl 4-methylpiperazine-1-sulfonate] | 9.7
Cc1cc(SC2C(=O)CC(C)(CCc3ccc(O)cc3)OC2=O)c(C(C)(C)C)cc1OS(=O)(=O)N(C)C (stereo unspecified) [5-tert-butyl-4-({4-hydroxy-6-[2-(4-hydroxyphenyl)ethyl]-6-methyl-2-oxo-5,6-dihydro-2H-pyran-3-yl}sulfanyl)-2-methylphenyl N,N-dimethylsulfamate] | 1.6
Cc1cc(SC2C(=O)CC(CCc3ccc(N)cc3)(C(C)C)OC2=O)c(C(C)(C)C)cc1OS(=O)(=O)N1CCN(C)CC1 (stereo unspecified) [4-({6-[2-(4-aminophenyl)ethyl]-4-hydroxy-2-oxo-6-(propan-2-yl)-5,6-dihydro-2H-pyran-3-yl}sulfanyl)-5-tert-butyl-2-methylphenyl 4-methylpiperazine-1-sulfonate] | 1
Cc1cc(SC2C(=O)CC(CCc3ccc(O)cc3)(C(C)C)OC2=O)c(C(C)(C)C)cc1OS(=O)(=O)N1CCOCC1 (stereo unspecified) [5-tert-butyl-4-({4-hydroxy-6-[2-(4-hydroxyphenyl)ethyl]-2-oxo-6-(propan-2-yl)-5,6-dihydro-2H-pyran-3-yl}sulfanyl)-2-methylphenyl morpholine-4-sulfonate] | 2.6
CCNS(=O)(=O)Oc1cc(C(C)(C)C)c(SC2C(=O)CC(CCc3ccccc3)(C(C)C)OC2=O)cc1C (stereo unspecified) | 8.9
CNS(=O)(=O)Oc1cc(C(C)(C)C)c(SC2C(=O)CC(CCc3ccc(O)cc3)(C(C)C)OC2=O)cc1C (stereo unspecified) [5-tert-butyl-4-({4-hydroxy-6-[2-(4-hydroxyphenyl)ethyl]-2-oxo-6-(propan-2-yl)-5,6-dihydro-2H-pyran-3-yl}sulfanyl)-2-methylphenyl N-methylsulfamate] | 1.2
Cc1cc(SC2C(=O)CC(C)(CCc3ccc(O)cc3)OC2=O)c(C(C)(C)C)cc1O (stereo unspecified) [6-Alkyl-5,6-Dihydropyran-2-one 13] | 6.5
CCNS(=O)(=O)Oc1cc(C(C)(C)C)c(SC2C(=O)CC(CCc3ccc(O)cc3)(c3ccccc3)OC2=O)cc1C (stereo unspecified) [5-tert-butyl-4-({4-hydroxy-6-[2-(4-hydroxyphenyl)ethyl]-2-oxo-6-phenyl-5,6-dihydro-2H-pyran-3-yl}sulfanyl)-2-methylphenyl N-ethylsulfamate] | 26
Cc1cc(SC2C(=O)CC(CCc3ccccc3)(C(C)C)OC2=O)c(C(C)(C)C)cc1OS(=O)(=O)N1CCN(C)CC1 (stereo unspecified) [5-tert-butyl-4-{[4-hydroxy-2-oxo-6-(2-phenylethyl)-6-(propan-2-yl)-5,6-dihydro-2H-pyran-3-yl]sulfanyl}-2-methylphenyl 4-methylpiperazine-1-sulfonate] | 3.9
Cc1cc(SC2C(=O)CC(C)(CCc3ccc(O)cc3)OC2=O)c(C(C)(C)C)cc1OS(N)(=O)=O (stereo unspecified) [[5-tert-butyl-4-({4-hydroxy-6-[2-(4-hydroxyphenyl)ethyl]-6-methyl-2-oxo-5,6-dihydro-2H-pyran-3-yl}sulfanyl)-2-methylphenyl] sulfamate] | 1.8
Cc1cc(SC2C(=O)CC(CCc3ccc(O)cc3)(C3CCCCC3)OC2=O)c(C(C)(C)C)cc1OS(=O)(=O)N(C)C (stereo unspecified) [5-tert-butyl-4-({6-cyclohexyl-4-hydroxy-6-[2-(4-hydroxyphenyl)ethyl]-2-oxo-5,6-dihydro-2H-pyran-3-yl}sulfanyl)-2-methylphenyl N,N-dimethylsulfamate] | 20
CCCNS(=O)(=O)Oc1cc(C(C)(C)C)c(SC2C(=O)CC(C)(CCc3ccc(O)cc3)OC2=O)cc1C (stereo unspecified) [5-tert-butyl-4-({4-hydroxy-6-[2-(4-hydroxyphenyl)ethyl]-6-methyl-2-oxo-5,6-dihydro-2H-pyran-3-yl}sulfanyl)-2-methylphenyl N-propylsulfamate] | 6.2
Cc1cc(SC2C(=O)CC(CCc3ccc(O)cc3)(C(C)C)OC2=O)c(C(C)(C)C)cc1OS(=O)(=O)N1CCN(C)CC1 (stereo unspecified) [5-tert-butyl-4-({4-hydroxy-6-[2-(4-hydroxyphenyl)ethyl]-2-oxo-6-(propan-2-yl)-5,6-dihydro-2H-pyran-3-yl}sulfanyl)-2-methylphenyl 4-methylpiperazine-1-sulfonate] | 3.1
CCCNS(=O)(=O)Oc1cc(C(C)(C)C)c(SC2C(=O)CC(CCc3ccc(O)cc3)(C(C)C)OC2=O)cc1C (stereo unspecified) [5-tert-butyl-4-({4-hydroxy-6-[2-(4-hydroxyphenyl)ethyl]-2-oxo-6-(propan-2-yl)-5,6-dihydro-2H-pyran-3-yl}sulfanyl)-2-methylphenyl N-propylsulfamate] | 3
Cc1cc(SC2C(=O)CC(C)(CCc3ccc(O)cc3)OC2=O)c(C(C)(C)C)cc1OS(=O)(=O)N1CCN(C)CC1 (stereo unspecified) [5-tert-butyl-4-({4-hydroxy-6-[2-(4-hydroxyphenyl)ethyl]-6-methyl-2-oxo-5,6-dihydro-2H-pyran-3-yl}sulfanyl)-2-methylphenyl 4-methylpiperazine-1-sulfonate] | 7.1
Cc1cc(SC2C(=O)CC(CCc3ccc(N)cc3)(C(C)C)OC2=O)c(C(C)(C)C)cc1OS(=O)(=O)N(C)C (stereo unspecified) [4-({6-[2-(4-aminophenyl)ethyl]-4-hydroxy-2-oxo-6-(propan-2-yl)-5,6-dihydro-2H-pyran-3-yl}sulfanyl)-5-tert-butyl-2-methylphenyl N,N-dimethylsulfamate] | 3.9
CCNS(=O)(=O)Oc1cc(C(C)(C)C)c(SC2C(=O)CC(CCc3ccc(O)cc3)(C(C)C)OC2=O)cc1C (stereo unspecified) [6-Alkyl-5,6-Dihydropyran-2-one 20] | 4.9
CCNS(=O)(=O)Oc1cc(C(C)(C)C)c(SC2C(=O)CC(CCc3ccc(N)cc3)(C(C)C)OC2=O)cc1C (stereo unspecified) [4-({6-[2-(4-aminophenyl)ethyl]-4-hydroxy-2-oxo-6-(propan-2-yl)-5,6-dihydro-2H-pyran-3-yl}sulfanyl)-5-tert-butyl-2-methylphenyl N-ethylsulfamate] | 4.3
CCNS(=O)(=O)Oc1cc(C(C)(C)C)c(SC2C(=O)CC(CCc3ccc(O)cc3)(C3CCCCC3)OC2=O)cc1C (stereo unspecified) [5-tert-butyl-4-({6-cyclohexyl-4-hydroxy-6-[2-(4-hydroxyphenyl)ethyl]-2-oxo-5,6-dihydro-2H-pyran-3-yl}sulfanyl)-2-methylphenyl N-ethylsulfamate] | 4.8
Cc1cc(SC2C(=O)CC(CCc3ccc(O)cc3)(C(C)C)OC2=O)c(C(C)(C)C)cc1OS(=O)(=O)N(C)C (stereo unspecified) [6-Alkyl-5,6-Dihydropyran-2-one 22] | 3.4
